Data set [1] is described as follows: Stability in human whole blood, red blood cells and plasma (with/without protease inhibitors, pH 6.0). It counts as in vitro ADME. As to the method: Stability of Test Articles at Different pH Values. 10 mM stock solutions of COMPOUND A were prepared in DMSO. From this stock solution, a single concentration in a 10 μL aliquot was added to three fluid matrices: SGF at pH 2.0 (gastric), SIF at pH 6.0 (upper intestine), and PBS at 7.4 (systemic). The final volume was 1 mL (0.1 mM). The preparations were then incubated at 37° C. and samples were collected at 0, 15, 30, 60, and 120 min for analysis of parent material by LC/MS/MS. The collected sample was quenched in acetonitrile/0.1% formic acid mixture. Red Blood Cell (RBC): Human and rat blood were centrifuged to separate out red blood cells at […] for 15 min. The upper plasma level was aspirated with a micropipette and placed in a bleach solution for disposal. The RBC pellet was resuspended in sterile isotonic saline. The pellet was gently resuspended by rocking the tube. The sample was then centrifuged again to collect the RBC pellet and then resuspended and washed one more time following the same procedure. A total of three was done. Following the last wash and centrifugation, the RBCs were resuspended with PBS; and mixed by inversion. Aliquots of the resuspended and washed RBCs were then placed into 4 reaction tubes. These tubes were centrifuged to collect the RBCs. The fluid level was marked on each tube, then the supernatant was aspirated off and the cells resuspended with room temperature PBS pH 7.4 to the original mark. An aliquot of the RBC suspension was added to four sterile tubes containing PBS pH 7.4 at room temperature.
Stability in Human and Rat Red Blood cells and Hemolysis. […] After centrifugation, 70 μL of supernatant (without disturbing the pellet) was transferred to a clean and clear polystyrene flat bottomed 96-well plate and the absorbance of the sample at a single wavelength was measured using a Bio Tech Synergy Hl Plate Reader at a wavelength of 410 nm. […] Stability was measured by measuring loss of parent compound using LC/MS/MS.

The next data set has as its system amidase. Kind of data set: Stability in the presence of amidase and amidase inhibitors in PBS. The note with it: amidase 50 units in PBS. In kind it is biochemical. As to the method:
Stability of COMPOUND A in the Presence of Amidase in Pure System. […] Test article (COMPOUND A) stock solution was prepared in 100% DMSO at a concentration of 10 mM. An aliquot (50 μL) of test article stock solution was added to 950 μL of PBS with and without amidase (50 units) in 1.5 mL tubes, and the mixture was vortexed and incubated at 37° C. with 5% CO2 for 120 min. Samples (50 μL) were taken at 0, 15, 30, 60, and 120 min after being vortexed. Samples were quenched in 150 μL acetonitrile/0.1% formic acid solution and briefly vortexed then immediately frozen at −80° C. Stability was determined by measuring loss of parent compound using LC/MS/MS methods. Each exposure condition and time point were done in triplicate.
Stability of COMPOUND A in the Presence of Amidase and Amidase Inhibitors in a Phosphate-buffered Saline (PBS). To confirm inhibition of the amidase, individual inhibitors were added to PBS with amidase (50 units). A solution without amidase and without inhibitors was also tested as a control. The individual inhibitors tested were Chloroacetone at 200 μM and MAFP at 40 nM. Amidase solution was prepared as described above and inhibitors were added to the solutions to the intended concentrations. […] Stability was determined by measuring loss of parent compound using LC/MS/MS methods. […]

In the case of `CCOc1ccccc1OC[C@@H]1CN(C(=O)OC(C)OC(=O)[C@@H](N)C(C)C)CCO1` (stereo partly shown) [COMPOUND A], in data set [1] (0-30 min), the “stability in human plasma at pH 6.0” value is “slower degradation compared to the other matrices” and the “stability in human plasma with protease inhibitor cocktail” value is given as “time-dependent decrease in the amount of parent compound present”. Besides, the “stability in human red blood cells and whole blood” value in data set [1] (0.5 mM, 0-120 min) is recorded as “time-dependent decrease in the amount of parent compound present”. Besides, in the data set with amidase, the “role of amidase in degradation” value was “amidase activity played an important role”.

The values are drawn from patent US20240343699A1, “DERIVATIVES OF SUBSTITUTED MORPHOLINES AND USES THEREOF” (Supernus Pharmaceuticals, Inc., priority 2023, published 2024).
